Measured values as given in patent US6673938B1, “Substituted pyridine herbicides” (Syngenta Participations AG, priority 1998, dated 2004).

What was measured:
[1] = test system: Monocotyledonous and dicotyledonous test plants; test: Herbicidal action before emergence of the plants (pre-emergence action); format: in vivo; details: evaluated after 3 weeks, nine-step scale; for pre-emergence action, Cyperus / pre-emergence action, Ipomoea / pre-emergence action, Setaria / pre-emergence action, Sinapis / pre-emergence action, Solanum / pre-emergence action, Stellaria: 2000 g/ha; for Pre-emergence action, Abutilon / Pre-emergence action, Amaranthus / Pre-emergence action, Chenop. / Pre-emergence action, Digitaria / Pre-emergence action, Echino. / Pre-emergence action, Panicum: 250 g/ha
Procedure: Monocotyledonous and dicotyledonous test plants are sown in standard soil in plastic pots. Immediately after sowing, the test substances as aqueous suspensions (prepared with a 25% wettable powder (Example F3, b) in accordance with WO 97/34485) or as emulsions (prepared with a 25% emulsion concentrate (Example F1, c)) are sprayed on at a rate of 2 kg of a.i./ha or 250 g of a.i./ha (500 l of water/ha). The test plants are then grown in the greenhouse under optimal conditions. After a test period of 3 weeks, the experiment is evaluated with reference to a nine-step scale (1=complete damage, 9=no effect). Score figures of 1 to 4 (in particular 1 to 3) mean a good to very good herbicidal action.

[2] = test system: Monocotyledonous and dicotyledonous test plants; test: Post-emergence herbicidal action; format: in vivo; details: evaluated after approximately 18 days; for Post-emergence action, Ipomoea / Post-emergence action, Lolium / Post-emergence action, Setaria / Post-emergence action, Sinapis / Post-emergence action, Solanum / Post-emergence action, Stellaria: 2000 g/ha, sprayed in 4- to 6-leaf stage, nine-step scale; for Post-emergence action: Abutilon (score, nine-step scale) / Post-emergence action: Chenop. (score, nine-step scale) / Post-emergence action: Digitaria (score, nine-step scale) / Post-emergence action: Echino. (score, nine-step scale) / Post-emergence action: Ipopur. (score, nine-step scale) / Post-emergence action: Panicum (score, nine-step scale) / Post-emergence action: Xanth. (score, nine-step scale): 250 g/ha, sprayed at 4- to 6-leaf stage
Procedure: Monocotyledonous and dicotyledonous test plants are grown in the greenhouse in plastic pots containing standard soil, and, in the 4- to 6-leaf stage, sprayed with an aqueous suspension of the test substances of the formula I prepared with a 25% wettable powder (Example F3, b) in accordance with WO 97/34485) or with an emulsion of the test substances of the formula I prepared with a 25% emulsion concentrate (Example F1, c) in accordance with WO 97/34485), corresponding to a rate of 2 kg of a.i./ha or 250 g of a.i./ha (500 l of water/ha). The test plants are subsequently grown on in the greenhouse under optimal conditions. After a test period of approximately 18 days, the test is evaluated with reference to a nine-step scale (1=complete damage, 9=no effect). Score figures of 1 to 4 (in particular 1 to 3) mean a good to very good herbicidal action. In this test, the compounds of the formula I show a potent herbicidal action.

SMILES | pre-emergence action, Cyperus [1] | pre-emergence action, Ipomoea [1] | pre-emergence action, Setaria [1] | pre-emergence action, Sinapis [1] | pre-emergence action, Solanum [1] | pre-emergence action, Stellaria [1] | Post-emergence action, Ipomoea [2] | Post-emergence action, Lolium [2] | Post-emergence action, Setaria [2] | Post-emergence action, Sinapis [2] | Post-emergence action, Solanum [2] | Post-emergence action, Stellaria [2] | further results
Cc1nc(C(F)(F)F)ccc1C(=O)C1=C(O)CC(C)CC1=O (stereo not drawn) [Compound A2-B133] | 1 | 2 | 2 | 2 | 1 | 2 | 1 | 2 | 2 | 1 | 2 | 2 | –
CCN(CC)CC.COCc1nc(C(F)(F)F)ccc1C(=O)C1=C(O)CC(C)CC1=O (stereo not drawn) [Compound A8-B1101] | 2 | 4 | 2 | 2 | 1 | 1 | 2 | 3 | 2 | 1 | 2 | 2 | –
COCc1nc(C(F)(F)F)ccc1C(=O)C1=C(O)C(C)(C)CCC1=O [Compound A8-B24] | 1 | 2 | 2 | 2 | 1 | 3 | 2 | 2 | 2 | 1 | 2 | 2 | –
Cc1nc(C(F)(F)F)ccc1C(=O)C1=C(O)C(C)CCC1=O (stereo not drawn) [Compound A2-B2] | 1 | 1 | 1 | 1 | 1 | 2 | 1 | 2 | 2 | 1 | 2 | 2 | –
Cc1nc(C(F)(F)F)ccc1C(=O)C1=C(O)C(C(C)C)CC(C)C1=O (stereo not drawn) [Compound A2-B49] | 2 | 4 | 2 | 2 | 1 | 2 | 2 | 2 | 2 | 1 | 2 | 2 | –
Cc1nc(C(F)(F)F)ccc1C(=O)C1=C(O)C(C)(S(C)(=O)=O)CC(C)C1=O (stereo not drawn) [Compound A2-B75] | 2 | 3 | 2 | 2 | 1 | 2 | 2 | 2 | 3 | 1 | 2 | 2 | –
Cc1nc(C(F)(F)F)ccc1C(=O)C1=C(O)C(C)(C)OCC1=O [Compound A2-B552] | 1 | 2 | 2 | 2 | 1 | 2 | – | – | – | – | – | – | –
COCc1nc(C(F)(F)F)ccc1C(=O)C1=C(O)CC(C)(C)CC1=O [Compound A8-B1063] | – | – | – | – | – | – | – | – | – | – | – | – | Pre-emergence action, Abutilon [1]: 2; Pre-emergence action, Amaranthus [1]: 4; Pre-emergence action, Chenop. [1]: 1; Pre-emergence action, Digitaria [1]: 3; Pre-emergence action, Echino. [1]: 3; Pre-emergence action, Panicum [1]: 2
COC(=O)C1(OC)CCC(=O)C(C(=O)c2ccc(C(F)(F)F)nc2C)=C1O (stereo not drawn) [Compound A2-B1067] | 2 | 3 | 2 | 2 | 3 | 3 | – | – | – | – | – | – | –
COC(=O)C1C(O)=C(C(=O)c2ccc(C(F)(F)F)nc2C)C(=O)CC1C (stereo not drawn) [Compound A2-B144] | 3 | 4 | 2 | 2 | 2 | 4 | – | – | – | – | – | – | –
COc1nc(C(F)(F)F)ccc1C(=O)C1=C(O)C(C)(C)CCC1=O [Compound A1022-B24] | – | – | – | – | – | – | – | – | – | – | – | – | Pre-emergence action, Abutilon [1]: 3; Pre-emergence action, Amaranthus [1]: 4; Pre-emergence action, Chenop. [1]: 1; Pre-emergence action, Digitaria [1]: 4; Pre-emergence action, Echino. [1]: 4; Pre-emergence action, Panicum [1]: 2
CSC1(C)CCC(=O)C(C(=O)c2ccc(C(F)(F)F)nc2C)=C1O (stereo not drawn) [Compound A2-B29] | – | – | – | – | – | – | 2 | 3 | 2 | 1 | 2 | 2 | –
Cc1nc(C(F)(F)F)ccc1C(=O)C1=C(O)CC(c2ccccc2)CC1=O (stereo not drawn) [Compound A2-B1058] | – | – | – | – | – | – | 1 | 2 | 4 | 1 | 2 | 2 | –
CCN(CC)CC.Cc1nc(C(F)(F)F)ccc1C(=O)C1=C(O)CC(C)CC1=O (stereo not drawn) [Compound A2-B1101] | – | – | – | – | – | – | 2 | 2 | 2 | 1 | 1 | 3 | –
Cc1nc(C(F)(F)F)ccc1C(=O)C1=C(O)C(C(C)C)CCC1=O (stereo not drawn) [Compound A2-B5] | – | – | – | – | – | – | 1 | 2 | 2 | 1 | 2 | 2 | –
COC(=O)C1C(O)=C(C(=O)c2ccc(C(F)(F)F)nc2C)C(=O)CC1(C)C (stereo not drawn) [Compound A2-B1094] | – | – | – | – | – | – | – | – | – | – | – | – | Post-emergence action: Abutilon (score, nine-step scale) [2]: 3; Post-emergence action: Chenop. (score, nine-step scale) [2]: 2; Post-emergence action: Digitaria (score, nine-step scale) [2]: 3; Post-emergence action: Echino. (score, nine-step scale) [2]: 2; Post-emergence action: Ipopur. (score, nine-step scale) [2]: 3; Post-emergence action: Panicum (score, nine-step scale) [2]: 2; Post-emergence action: Xanth. (score, nine-step scale) [2]: 3
COCc1nc(C(F)(F)F)ccc1C(=O)C1=C(O)C(C)C2CC2C1=O (stereo not drawn) [Compound A8-D109] | – | – | – | – | – | – | – | – | – | – | – | – | Post-emergence action: Abutilon (score, nine-step scale) [2]: 3; Post-emergence action: Chenop. (score, nine-step scale) [2]: 3; Post-emergence action: Digitaria (score, nine-step scale) [2]: 3; Post-emergence action: Echino. (score, nine-step scale) [2]: 3; Post-emergence action: Ipopur. (score, nine-step scale) [2]: 2; Post-emergence action: Panicum (score, nine-step scale) [2]: 3; Post-emergence action: Xanth. (score, nine-step scale) [2]: 1
COCc1nc(C(F)(F)F)ccc1C(=O)C1=C(O)CCC=C(C)C1=O [Compound A8-F5] | – | – | – | – | – | – | – | – | – | – | – | – | Post-emergence action: Abutilon (score, nine-step scale) [2]: 3; Post-emergence action: Chenop. (score, nine-step scale) [2]: 3; Post-emergence action: Digitaria (score, nine-step scale) [2]: 3; Post-emergence action: Echino. (score, nine-step scale) [2]: 4; Post-emergence action: Ipopur. (score, nine-step scale) [2]: 3; Post-emergence action: Panicum (score, nine-step scale) [2]: 4; Post-emergence action: Xanth. (score, nine-step scale) [2]: 3
Cc1nc(C(F)(F)F)ccc1C(=O)C1=C(O)CCC2(CCCCCC2)C1=O [Compound A2-C149] | – | – | – | – | – | – | 1 | 3 | 2 | 1 | 2 | 2 | –
